From publication PMC7395176, “Retromer stabilization results in neuroprotection in a model of Amyotrophic Lateral Sclerosis” (Nature Communications, 2020)
Where “and” joins values, the source holds several entries; their conditions need not be identical. Equal entries are not always repeated.

Columns and labels:
Neuro2a cells = assay: Neuro2a cell survival (CCK8) with increasing 2a concentrations; type: cell-based; details: 48 h
Procedure: We assessed the cytotoxicity of compound 2a, measuring survival of Neuro2a cells exposed to increasing 2a concentrations. […] We next checked for toxic effects of compound 2a in primary neuronal cultures coupled with Micro Electrode Array (MEA) devices. Mouse cortical neurons (E16.5) were plated on MEAs, kept in culture for 14 days to develop firing activity and recorded in presence of 2a.
Cell survival experiments were run on 96-well plates using Cell Counting Kit-8 (CCK8) survival kit (96992-Sigma–Aldrich) according the manufacturer’s recommendations. Compound 2a cytotoxicity was tested on Neuro2a cells receiving increasing amounts of compound 2a (1, 10, 50, 100, 200, 500, and 1000 µM) for 48 h. Data were acquired using an Epoch spectrophotometer equipped with the GEN5 (2.03.1) software (Agilent).

[1] = tested on: SOD1^G93A-transfected Neuro2a cells; assay: Lyso-tracker analysis of lysosomes in SOD1G93A-transfected Neuro2a cells; type: cell-based; details: 24 h starvation, 10µM
Procedure: Lysosomal alterations are early events in ALS[7],[56]. We speculated that an impairment of the retromer should alter protease trafficking via CI-MPR, and therefore disrupt lysosomal homeostasis. […] We transfected Neuro2a cells with plasmids encoding the Sh56-RNAi to downregulate VPS35. After 24 h of starvation, we analyzed the lysosomes using Lyso-tracker[58]. We observed enlarged and abnormally distributed lysosomes in cells with VPS35 interference by Sh56 (Supplementary Fig. 12a–c). […] We asked whether the overexpression of SOD1^G93A would also result in similar lysosomal alterations by transfecting Neuro2a cells with plasmids encoding SOD1^G93A, with or without compound 2a.
VPS35 knockdown impairs lysosomal stability
Panels a and b, Neuro2a cells (4x10^4cells/well) transfected with the scramble plasmid (0.5 µg/well, a)or with the VPS35 RNAi plasmids (Sh56, 0.5 µg/well, b) along with plasmid encoding the GFP (0.1 µg/well) and labelled with Lyso-tracker (75 nM). Quantifications of Lyso Tracker-covered areas (%± SD) in individual GFP+ cells were done on merged confocal images and data are shown in c (scramble: n=52 cells, Sh56: n=39 cells, data are collected from 3 independent experiments, p<0.0001). Protein lysates from Neuro2a cells (3x10^5 cells/well) receiving scramble or Sh56 plasmids (2 µg/well for 48h) were labelled for Ubiquitin and β-Actin (d). […]

In the case of `NC(N)=N/N=C/c1cccc(/C=N/N=C(N)N)c1` [compound 2a, phenyl-1,3-bis-guanylhydrazone], the cell survival (Neuro2a cells; 10 μM) is reported as “did not affect cell survival”, the LD50 (Neuro2a cells; 1–1000 µM) is reported as 257.9 µM and ~260 µM and the “enlarged lysosomes (Lyso-tracker)” value [1] is reported as “significantly reverted this phenotype”.
